From ChEMBL document CHEMBL1130530, “3D QSAR analysis of taxoids from Taxus cuspidata var. nana by comparative molecular field approach” (Bioorg Med Chem Lett, 1997)

tested on: P388; assay: Actual inhibitory activity in P388 leukemia cells by CoMFA analysis, expressed as log 1/IC50.; type: functional, cell-based; conditions: Mus musculus, P388, read-out: Log 1/IC50 (converted)

| SMILES | IC50 [nM] |
| --- | --- |
| CCCCCC(=O)N[C@@H](c1ccccc1)[C@@H](O)C(=O)O[C@H]1C[C@@]2(O)[C@@H](OC(=O)c3ccccc3)[C@@H]3[C@]4(OC(C)=O)CO[C@@H]4C[C@H](O)[C@@]3(C)C(=O)[C@@H](O)C(=C1C)C2(C)C | 89.2 |
| CC(=O)OC[C@H]1[C@H]2[C@H](O)[C@@H]3C[C@H](OC(C)=O)C(C)=C([C@@H](OC(C)=O)[C@H](OC(C)=O)[C@]2(C)[C@@H](OC(C)=O)C[C@@H]1OC(C)=O)C3(C)C | 12.3 |
| CC(=O)O[C@H]1C[C@@]2(O)[C@@H](OC(=O)c3ccccc3)[C@@H]3[C@]4(OC(C)=O)CO[C@@H]4C[C@H](O)[C@@]3(C)[C@@H](O)[C@H](O)C(=C1C)C2(C)C | 28.9 |
| CC(=O)O[C@@]12CO[C@@H]1C[C@H](O)[C@@]1(C)C(=O)[C@H](O)C3=C(C)[C@@H](OC(=O)[C@H](O)[C@@H](NC(=O)c4ccccc4)c4ccccc4)C[C@@](O)([C@@H](OC(=O)c4ccccc4)[C@H]21)C3(C)C | 42.7 |
| C=C1[C@@H](OC(=O)/C=C/c2ccccc2)C[C@H](OC(C)=O)[C@@]2(C)[C@@H](OC(C)=O)[C@H](OC(C)=O)[C@]3(O)[C@@]4(C)CO[C@]3(C)C(=O)C[C@H]4[C@@H](OC(C)=O)[C@H]12 [TAXAGIFINE] | 10 |
| C=C1[C@@H](O)C[C@H](OC(C)=O)[C@@]2(COC(=O)c3ccccc3)[C@@H](OC(C)=O)[C@H](OC(C)=O)[C@]3(O)[C@@]4(C)CO[C@]3(C)C(=O)C[C@H]4[C@@H](OC(C)=O)[C@H]12 [TAXININ M] | 26.9 |
| CC(=O)O[C@H]1C(=O)[C@@]2(C)[C@H]([C@H](OC(=O)c3ccccc3)[C@]3(O)C[C@H](O)C(C)=C1C3(C)C)[C@]1(OC(C)=O)CO[C@@H]1C[C@@H]2O [BACCATIN III] | 63.2 |
| C=C1[C@H]2C[C@@H]3C[C@H](O)C(C)=C([C@@H](OC(C)=O)[C@H](OC(C)=O)[C@]2(C)[C@@H](OC(C)=O)C[C@@H]1O)C3(C)C | 63.2 |
| CC(=O)O[C@H]1C[C@H]2[C@@H](OC(C)=O)CC3C[C@](C)(C(=O)[C@H](O)C(=C1C)C2(C)C)[C@@H](O)C[C@@H]3OC(=O)/C=C/c1ccccc1 | 47.9 |
| C=C1[C@@H](O)C[C@H](OC(C)=O)[C@@]2(C)[C@@H](OC(C)=O)[C@H](OC(C)=O)C3=C(C)[C@@H](OC(C)=O)C[C@@H]([C@@H](OC(C)=O)[C@H]12)C3(C)C [DECINNAMOYLTAXININE J] | 12.6 |
| CC(=O)O[C@H]1C[C@@]2(O)[C@@H](OC(=O)c3ccccc3)[C@@H]3[C@]4(OC(C)=O)CO[C@@H]4C[C@H](O)[C@@]3(C)[C@@H](O)[C@H](OC(C)=O)C(=C1C)C2(C)C | 52.5 |
| CC(=O)O[C@H]1[C@@H]2[C@H](CO)[C@@H](OC(C)=O)C[C@H](OC(C)=O)[C@@]2(C)[C@@H](OC(C)=O)[C@H](OC(C)=O)C2=C(C)[C@@H](OC(C)=O)C[C@@H]1C2(C)C | 14.1 |
| CC(=O)O[C@@]12CO[C@@H]1C[C@H](O)[C@@]1(C)C(=O)[C@H](O)C3=C(C)[C@@H](OC(=O)[C@H](O)[C@@H](NC(=O)C4CCC4)c4ccccc4)C[C@@](O)([C@@H](OC(=O)c4ccccc4)[C@H]21)C3(C)C | 66.1 |
| CCCCCC(=O)N[C@@H](c1ccccc1)[C@@H](O)C(=O)O[C@H]1C[C@@]2(O)[C@@H](OC(=O)c3ccccc3)[C@@H]3[C@]4(OC(C)=O)CO[C@@H]4C[C@H](O)[C@@]3(C)C(=O)[C@H](O)C(=C1C)C2(C)C [10-DEACETYLTAXAYUNNANINE A] | 40.8 |
| C=C1[C@H]2C[C@@H]3C[C@H](OC(C)=O)C(C)=C([C@@H](OC(C)=O)[C@H](OC(C)=O)[C@]2(C)[C@@H](OC(C)=O)C[C@@H]1O)C3(C)C | 43.7 |
| C=C1[C@@H](O)C[C@H](OC(C)=O)[C@@]2(C)[C@@H](OC(C)=O)[C@H](OC(C)=O)C3=C(C)C(=O)C[C@@H]([C@@H](OC(C)=O)[C@H]12)C3(C)C | 66.1 |
| C=C1[C@@H](OC(=O)/C=C/c2ccccc2)CC[C@@]2(C)[C@@H](OC(C)=O)[C@H](OC(C)=O)C3=C(C)C(=O)C[C@@H]([C@@H](OC(C)=O)[C@H]12)C3(C)C | 10 |

Second part, the compound after the results:

| IC50 [nM] | SMILES |
| --- | --- |
| 10 | C=C1[C@@H](OC(=O)/C=C/c2ccccc2)C[C@H](OC(C)=O)[C@@]2(C)[C@@H](OC(C)=O)[C@H](OC(C)=O)C3=C(C)C(=O)C[C@@H]([C@@H](OC(C)=O)[C@H]12)C3(C)C |
| 81.4 | CCCCCC(=O)N[C@@H](c1ccccc1)[C@@H](O)C(=O)O[C@H]1C[C@@]2(O)[C@@H](OC(=O)c3ccccc3)[C@@H]3[C@]4(OC(C)=O)CO[C@@H]4C[C@H](O)[C@@]3(C)C(=O)[C@H](OC(C)=O)C(=C1C)C2(C)C [TAXOL C] |
| 16.6 | C=C1[C@@H](OC(C)=O)CC[C@@]2(C)[C@@H](OC(C)=O)[C@H](OC(C)=O)C3=C(C)[C@@H](OC(C)=O)C[C@@H]([C@@H](OC(C)=O)[C@H]12)C3(C)C |
| 100 | CC(=O)O[C@@]12CO[C@@H]1C[C@H](O)[C@]1(C)[C@@H]2[C@H](OC(=O)c2ccccc2)[C@]2(O)CC(=O)C(C)=C([C@@H](O)[C@@H]1O)C2(C)C |
| 10 | CC(=O)O[C@H]1C[C@@]2(O)[C@@H](OC(C)=O)[C@@H]3[C@@]4(CO4)[C@@H](OC(C)=O)C[C@H](OC(C)=O)[C@@]3(C)[C@@H](OC(C)=O)[C@H](OC(C)=O)C(=C1C)C2(C)C |
| 12.3 | C=C1[C@H]2C[C@@H]3CC(=O)C(C)=C([C@@H](OC(C)=O)[C@H](OC(C)=O)[C@]2(C)[C@@H](OC(C)=O)C[C@@H]1O)C3(C)C |
| 18.2 | CCCCCCC(=O)N[C@@H](c1ccccc1)[C@@H](O)C(=O)O[C@H]1C[C@@]2(O)[C@@H](OC(=O)c3ccccc3)[C@@H]3[C@]4(OC(C)=O)CO[C@@H]4C[C@H](O)[C@@]3(C)C(=O)[C@H](OC(C)=O)C(=C1C)C2(C)C |
| 47.9 | CC(=O)O[C@@H]1C2=C(C)C(=O)C[C@@](O)([C@@H](OC(=O)c3ccccc3)[C@@H]3[C@]4(OC(C)=O)CO[C@@H]4C[C@H](O)[C@@]3(C)[C@H]1O)C2(C)C |
| 25.1 | C=C1[C@H]2C[C@]3(O)C[C@H](O)C(C)=C([C@@H](OC(C)=O)[C@H](OC(C)=O)[C@]2(C)[C@@H](OC(=O)c2ccccc2)C[C@@H]1O)C3(C)C |
| 21.9 | CC(=O)O[C@H]1C(=O)[C@@]2(C)[C@H]([C@H](OC(=O)c3ccccc3)[C@]3(O)C[C@H](OC(=O)[C@H](O)[C@@H](NC(=O)c4ccccc4)c4ccccc4)C(C)=C1C3(C)C)[C@]1(OC(C)=O)CO[C@@H]1C[C@@H]2O [PACLITAXEL] |
